Reference: PubChem BioAssay AID1963426 (Molecular Pharmacology Branch, DTP, NCI, 2024)

Test system: 186277-243-T-J2-PDC complex spheroid growth, % test/control
Test: Anticancer human tumor 186277-243-T-J2-PDC patient-derived colon adenocarcinoma cell line growth inhibition [Asc]
Details: for IC50: curve of first compound; for viability, T/C: stronger effect = lower value
How it was run: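 Complex solid-tumor spheroids incorporating human endothelial and mesenchymal stem cells received single agents or combinations over half-log dilution ranges anchored to clinical Cmax.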

[1] = second compound 0.1 µM, first compound 0.0316 µM
[2] = second compound 0.1 µM, first compound 0.1 µM
[3] = second compound 0.1 µM, first compound 0.316 µM
[4] = second compound 0.1 µM, first compound 1 µM
[5] = second compound 0.1 µM, first compound 3.16 µM
[6] = second compound 0.1 µM, first compound 10 µM
[7] = second compound 0.316 µM, first compound 0.0316 µM
[8] = second compound 0.316 µM, first compound 0.1 µM
[9] = second compound 0.316 µM, first compound 0.316 µM
[10] = second compound 0.316 µM, first compound 1 µM
[11] = second compound 0.316 µM, first compound 3.16 µM
[12] = second compound 0.316 µM, first compound 10 µM
[13] = second compound 1 µM, first compound 0.0316 µM
[14] = second compound 1 µM, first compound 0.1 µM
[15] = second compound 1 µM, first compound 0.316 µM
[16] = second compound 1 µM, first compound 1 µM
[17] = second compound 1 µM, first compound 3.16 µM
[18] = second compound 1 µM, first compound 10 µM
[19] = second compound 3.16 µM, first compound 0.0316 µM
[20] = second compound 3.16 µM, first compound 0.1 µM
[21] = second compound 3.16 µM, first compound 0.316 µM
[22] = second compound 3.16 µM, first compound 1 µM
[23] = second compound 3.16 µM, first compound 3.16 µM
[24] = second compound 3.16 µM, first compound 10 µM
[25] = second compound 10 µM, first compound 0.0316 µM
[26] = second compound 10 µM, first compound 0.1 µM
[27] = second compound 10 µM, first compound 0.316 µM
[28] = second compound 10 µM, first compound 1 µM
[29] = second compound 10 µM, first compound 3.16 µM
[30] = second compound 10 µM, first compound 10 µM
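Further: spheroids exposed to agents for 7 days.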
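Wherever viability, T/C is given: 100% = DMSO vehicle control wells.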

`C=C(F)C(=O)N1CCN(c2nc(OCC3CCCN3C)nc3c2CCN(c2cccc4cccc(Cl)c24)C3)CC1CC#N` (stereo not given) + Cc1c(S(C)(=O)=O)c(-c2cc(F)cc(N3CCN(c4ccc(NS(=O)(=O)c5ccc(NC(CCN6CCC(C(=O)OCCCP(=O)(O)O)CC6)CSc6ccccc6)c(S(=O)(=O)C(F)(F)F)c5)cc4)CC3)c2)c(-c2ccc(Cl)cc2)n1C(C)C showed an IC50 (second compound 0.1 µM) of 5550 nM, an IC50 (second compound 0.316 µM) of 4400 nM and an IC50 (second compound 1 µM) of 2590 nM. For the same molecule, the IC50 (second compound 3.16 µM) was 2180 nM, the IC50 (second compound 10 µM) was 2370 nM and the viability, T/C [1] was 109%. It also gave a viability, T/C [2] of 111%, a viability, T/C [3] of 110% and a viability, T/C [4] of 110%. The viability, T/C [5] was 97.2%, the viability, T/C [6] was 0.54% and the viability, T/C [7] was 106%. For the same molecule, the viability, T/C [8] was 109%, the viability, T/C [9] was 108% and the viability, T/C [10] was 111%. For the same molecule, the viability, T/C [11] was 70%, the viability, T/C [12] was 0.32% and the viability, T/C [13] was 115%. The viability, T/C [14] was 119%, the viability, T/C [15] was 107% and the viability, T/C [16] was 124%. For the same molecule, the viability, T/C [17] was 36.1%, the viability, T/C [18] was 0.51% and the viability, T/C [19] was 105%. The viability, T/C [20] was 108%, the viability, T/C [21] was 112% and the viability, T/C [22] was 104%. The viability, T/C [23] was 24.2%, the viability, T/C [24] was 0.16% and the viability, T/C [25] was 120%. It also gave a viability, T/C [26] of 106%, a viability, T/C [27] of 116% and a viability, T/C [28] of 107%. For the same molecule, the viability, T/C [29] was 31.2% and the viability, T/C [30] was 0.25%.
`C=CC(=O)N1CCN(c2nc(=O)n(-c3c(C)ccnc3C(C)C)c3nc(-c4c(O)cccc4F)c(F)cc23)C(C)C1` (stereo not given) + Cc1c(S(C)(=O)=O)c(-c2cc(F)cc(N3CCN(c4ccc(NS(=O)(=O)c5ccc(NC(CCN6CCC(C(=O)OCCCP(=O)(O)O)CC6)CSc6ccccc6)c(S(=O)(=O)C(F)(F)F)c5)cc4)CC3)c2)c(-c2ccc(Cl)cc2)n1C(C)C was tested, and the IC50 (second compound 0.1 µM) was greater than 10000 nM, the IC50 (second compound 0.316 µM) was greater than 10000 nM and the IC50 (second compound 1 µM) was greater than 10000 nM. It also gave an IC50 (second compound 3.16 µM) greater than 10000 nM, an IC50 (second compound 10 µM) greater than 10000 nM and a viability, T/C [1] of 120%. The viability, T/C [2] was 105%, the viability, T/C [3] was 105% and the viability, T/C [4] was 108%. For the same molecule, the viability, T/C [5] was 116%, the viability, T/C [6] was 113% and the viability, T/C [7] was 111%. It also gave a viability, T/C [8] of 104%, a viability, T/C [9] of 104% and a viability, T/C [10] of 104%. The viability, T/C [11] was 119%, the viability, T/C [12] was 116% and the viability, T/C [13] was 128%. For the same molecule, the viability, T/C [14] was 115%, the viability, T/C [15] was 100% and the viability, T/C [16] was 116%. It also gave a viability, T/C [17] of 119%, a viability, T/C [18] of 119% and a viability, T/C [19] of 105%. It also gave a viability, T/C [20] of 123%, a viability, T/C [21] of 115% and a viability, T/C [22] of 111%. It also gave a viability, T/C [23] of 116%, a viability, T/C [24] of 116% and a viability, T/C [25] of 102%. For the same molecule, the viability, T/C [26] was 109%, the viability, T/C [27] was 102% and the viability, T/C [28] was 119%. It also gave a viability, T/C [29] of 104% and a viability, T/C [30] of 110%.
`CCN1C(C(=O)NC23CCC(C(=O)O)(CC2)CC3)C(c2cccc(Cl)c2F)C2(C(=O)Nc3cc(Cl)ccc32)C12CCCCC2` (stereo not given) + Cc1c(S(C)(=O)=O)c(-c2cc(F)cc(N3CCN(c4ccc(NS(=O)(=O)c5ccc(NC(CCN6CCC(C(=O)OCCCP(=O)(O)O)CC6)CSc6ccccc6)c(S(=O)(=O)C(F)(F)F)c5)cc4)CC3)c2)c(-c2ccc(Cl)cc2)n1C(C)C gave an IC50 (second compound 0.1 µM) of 746 nM, an IC50 (second compound 0.316 µM) of 397 nM and an IC50 (second compound 1 µM) of 202 nM. It also gave an IC50 (second compound 3.16 µM) of 110 nM, an IC50 (second compound 10 µM) of 97.5 nM and a viability, T/C (second compound 0.1 µM, first compound 0.00949 µM) of 103%. The viability, T/C (second compound 0.1 µM, first compound 0.03 µM) was 137%, the viability, T/C (second compound 0.1 µM, first compound 0.0949 µM) was 91.4% and the viability, T/C (second compound 0.1 µM, first compound 0.3 µM) was 73.6%. It also gave a viability, T/C (second compound 0.1 µM, first compound 0.949 µM) of 47.5%, a viability, T/C (second compound 0.1 µM, first compound 3 µM) of 14% and a viability, T/C (second compound 0.316 µM, first compound 0.00949 µM) of 111%. The viability, T/C (second compound 0.316 µM, first compound 0.03 µM) was 121%, the viability, T/C (second compound 0.316 µM, first compound 0.0949 µM) was 82.6% and the viability, T/C (second compound 0.316 µM, first compound 0.3 µM) was 59.3%. The viability, T/C (second compound 0.316 µM, first compound 0.949 µM) was 26.1%, the viability, T/C (second compound 0.316 µM, first compound 3 µM) was 1.1% and the viability, T/C (second compound 1 µM, first compound 0.00949 µM) was 107%. The viability, T/C (second compound 1 µM, first compound 0.03 µM) was 126%, the viability, T/C (second compound 1 µM, first compound 0.0949 µM) was 72.7% and the viability, T/C (second compound 1 µM, first compound 0.3 µM) was 38.3%. It also gave a viability, T/C (second compound 1 µM, first compound 0.949 µM) of 8.6%, a viability, T/C (second compound 1 µM, first compound 3 µM) of 1.06% and a viability, T/C (second compound 3.16 µM, first compound 0.00949 µM) of 120%. It also gave a viability, T/C (second compound 3.16 µM, first compound 0.03 µM) of 103%, a viability, T/C (second compound 3.16 µM, first compound 0.0949 µM) of 52.5% and a viability, T/C (second compound 3.16 µM, first compound 0.3 µM) of 19.8%. It also gave a viability, T/C (second compound 3.16 µM, first compound 0.949 µM) of 2.56%, a viability, T/C (second compound 3.16 µM, first compound 3 µM) of 0.36% and a viability, T/C (second compound 10 µM, first compound 0.00949 µM) of 107%. For the same molecule, the viability, T/C (second compound 10 µM, first compound 0.03 µM) was 110%, the viability, T/C (second compound 10 µM, first compound 0.0949 µM) was 49.7% and the viability, T/C (second compound 10 µM, first compound 0.3 µM) was 13.4%. For the same molecule, the viability, T/C (second compound 10 µM, first compound 0.949 µM) was 3.44% and the viability, T/C (second compound 10 µM, first compound 3 µM) was 0.38%.
With `COc1c(OCCCN2CCOCC2)ccc2c3n(c(=NC(=O)c4cnc(N)nc4)nc12)CCN3` + Cc1c(S(C)(=O)=O)c(-c2cc(F)cc(N3CCN(c4ccc(NS(=O)(=O)c5ccc(NC(CCN6CCC(C(=O)OCCCP(=O)(O)O)CC6)CSc6ccccc6)c(S(=O)(=O)C(F)(F)F)c5)cc4)CC3)c2)c(-c2ccc(Cl)cc2)n1C(C)C the IC50 (second compound 0.1 µM) was 43.4 nM, the IC50 (second compound 0.316 µM) was 40.2 nM and the IC50 (second compound 1 µM) was 33.8 nM. It also gave an IC50 (second compound 3.16 µM) of 27.2 nM, an IC50 (second compound 10 µM) of 31.8 nM and a viability, T/C (second compound 0.1 µM, first compound 0.00316 µM) of 107%. For the same molecule, the viability, T/C (second compound 0.1 µM, first compound 0.01 µM) was 101%, the viability, T/C [1] was 53.2% and the viability, T/C [2] was 31.5%. It also gave a viability, T/C [3] of 12.4%, a viability, T/C [4] of 8.11% and a viability, T/C (second compound 0.316 µM, first compound 0.00316 µM) of 98%. The viability, T/C (second compound 0.316 µM, first compound 0.01 µM) was 98.1%, the viability, T/C [7] was 53.2% and the viability, T/C [8] was 24.9%. The viability, T/C [9] was 7.34%, the viability, T/C [10] was 4.21% and the viability, T/C (second compound 1 µM, first compound 0.00316 µM) was 95.9%. For the same molecule, the viability, T/C (second compound 1 µM, first compound 0.01 µM) was 84.1%, the viability, T/C [13] was 50.3% and the viability, T/C [14] was 21.9%. For the same molecule, the viability, T/C [15] was 6.19%, the viability, T/C [16] was 2% and the viability, T/C (second compound 3.16 µM, first compound 0.00316 µM) was 91.7%. It also gave a viability, T/C (second compound 3.16 µM, first compound 0.01 µM) of 99.2%, a viability, T/C [19] of 42.8% and a viability, T/C [20] of 15.7%. It also gave a viability, T/C [21] of 2.68%, a viability, T/C [22] of 1.29% and a viability, T/C (second compound 10 µM, first compound 0.00316 µM) of 82.4%. The viability, T/C (second compound 10 µM, first compound 0.01 µM) was 83.9%, the viability, T/C [25] was 48% and the viability, T/C [26] was 15.5%. For the same molecule, the viability, T/C [27] was 4.11% and the viability, T/C [28] was 1.39%.
